From PMC9313812, “The Pseudo‐Natural Product Rhonin Targets RHOGDI” (Angewandte Chemie (International Ed. in English), 2022) come the findings set out here.

Experiment [1] deals with T1, PDEδ (Homo sapiens, UniProt O43924).
T1 construct: GST (N); made in house; host or cells: E. coli Rosetta 2
In words: Competition-based fluorescence polarization with fluorescein-labelled atorvastatin. In kind it is binding. Particulars: selectivity test. The protocol: RHOGDI1 displaced liposome -bound RAC1 from the surface of L1 chip with a koff of 0.016 […]
bound RAC1. Calculated rate constants by mono-exponential fitting of RU decays were 0.02 and 0.032 s-1 for RHOGDI1-mediated RAC1 displacement from the liposomes in the presence of 7a and 7d, respectively. (d) Competition-based fluorescence polarization experiments were performed by titration of 7a against 10 nM fluorescein-labelled atorvastatin and GST-PDEδ.
(e) Fluorescence polarization experiment using 10 nM probe 10 and titration of PDEδ.
(1 picture or pasted object on this page, not shown here)
(§1) Label-free quantification (LFQ) intensities were logarithmized (log2) and proteins, which were not three times quantified in at least one of the groups, were filtered off. […]
(§2) Fluorescence polarization
(§3) The binding of probe 10 to RHOGDI1-3 was confirmed by fluorescence polarization experiments. […] The change in fluorescence polarization was monitored at an excitation / emission wavelengths of 535 nm and 593 nm, respectively. […]
(§4) To determine the effect of 7a on the binding of RHOGDI1 to non-prenylated RAC1-GDP, fluorescence polarization measurements were performed by titrating 1 µM TAMRA-GDP-bound RAC1 with increasing concentrations of RHOGDI1 in the presence and absence of 50 µM 7a in buffer containing 30 mM Tris-HCl, pH 7.5, 150 mM NaCl, 5 mM MgCl2, 1% DMSO. […]
(In general: In fluorescence polarisation assays a small probe gives low polarisation when free and higher when bound to something large.)

The target in experiment [2] is T2, RHOGDI1-RAC1 interaction (Homo sapiens, UniProt P52565).
T2 construct: GST; made in house; host or cells: RHOGDI1: E. coli; GerGer-RAC1: insect cells (TNAO38)
T2 sequence (P52565 1-204): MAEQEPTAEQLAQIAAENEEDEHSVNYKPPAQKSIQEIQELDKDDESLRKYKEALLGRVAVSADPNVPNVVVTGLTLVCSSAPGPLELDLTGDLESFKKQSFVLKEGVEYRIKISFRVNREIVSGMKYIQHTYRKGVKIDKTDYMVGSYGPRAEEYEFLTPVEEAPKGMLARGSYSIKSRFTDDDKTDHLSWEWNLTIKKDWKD
In words: Fluorescence polarization: titration of TAMRA-GDP-bound RAC1 with RHOGDI1 in presence of compound. Particulars: Cheng-Prusoff equation using data from Figure S6f. The experiment is classed as binding. How it is done:
cilia were stained with an antibody against acetylated tubulin. SMO was marked with an anti-SMO antibody and DAPI was used to stain the nuclei. For quantification of cilia, at least 100 cilia per condition and biological replicate were analyzed for the intensity of anti-acetylated tubulin antibody staining. The results of one representative biological replicate are shown and each data point represents the intensity value of one single cilium. Statistical significance was evaluated using an unpaired t-test with a confidence interval of 95 % (p ≤ n.s.). […]
as §1, §2, §3, §4

Take `COC(=O)C1(C(CC(=O)c2ccccc2)c2ccccc2)N=C(c2ccc(Br)cc2)C2C(=O)N(C)C(=O)C21` (centres unmarked) [7a]: the “Competition with fluorescein-labelled atorvastatin for binding to PDEδ (in words)” value in experiment [1] was “does not compete”.

`COC(=O)C1(C(CC(=O)c2cccnc2)c2ccccc2)N=C(c2ccc(Br)cc2)C2C(=O)N(C)C(=O)C21` (centres unmarked) [7l]: the Ki (commonly a dissociation constant, usually derived from enzyme kinetics or from competition with a known ligand) in experiment [2] is roughly 2200 nM.
